Measurements published in publication PMC8330742, “New benzothieno[2,3-c]pyridines as non-steroidal CYP17 inhibitors: design, synthesis, anticancer screening, apoptosis induction, and in silico ADME profile studies” (Journal of Enzyme Inhibition and Medicinal Chemistry, 2021).

Columns and labels:
CCRF-CEM = test: NCI-60 SRB screen; type: cell-based; settings: Homo sapiens, single dose 10^−5 M, Leukaemia, read-out: Growth inhibition (%)
HL-60(TB) = test: NCI-60 SRB screen; type: cell-based, human; settings: Homo sapiens; single dose 10^−5 M; HL-60(TB), Leukaemia; read-out: Growth inhibition (%)
K-562 = test: NCI-60 SRB screen; type: cell-based, human; settings: Homo sapiens, K562; single dose 10^−5 M; K-562, Leukaemia; read-out: Growth inhibition (%)
MOLT-4 = test: NCI-60 SRB screen; type: cell-based; settings: Homo sapiens; single dose 10^−5 M; MOLT-4, Leukaemia; read-out: Growth inhibition (%)
SR = test: NCI-60 SRB screen; type: cell-based; settings: Homo sapiens, single dose 10^−5 M, Leukaemia, read-out: Growth inhibition (%)
A549/ATCC = test: NCI-60 SRB screen; type: cell-based, human; settings: Homo sapiens, single dose 10^−5 M, Non-small cell lung carcinoma, read-out: Growth inhibition (%)
EKVX = test: NCI-60 SRB screen; type: cell-based, human; settings: Homo sapiens, single dose 10^−5 M, Non-small cell lung carcinoma, read-out: Growth inhibition (%)
HOP-62 = test: NCI-60 SRB screen; type: cell-based, human; settings: Homo sapiens; single dose 10^−5 M; HOP-62, Non-small cell lung carcinoma; read-out: Growth inhibition (%)
HOP-92 = test: NCI-60 SRB screen; type: cell-based, human; settings: Homo sapiens; single dose 10^−5 M; HOP-92, Non-small cell lung carcinoma; read-out: Growth inhibition (%)
NCI-H226 = test: NCI-60 SRB screen; type: cell-based, human; settings: Homo sapiens; single dose 10^−5 M; NCI-H226, Non-small cell lung carcinoma; read-out: Growth inhibition (%)
NCI-H23 = test: NCI-60 SRB screen; type: cell-based, human; settings: Homo sapiens; single dose 10^−5 M; NCI-H23, Non-small cell lung carcinoma; read-out: Growth inhibition (%)
NCI-H322M = test: NCI-60 SRB screen; type: cell-based, human; settings: Homo sapiens, single dose 10^−5 M, Non-small cell lung carcinoma, read-out: Growth inhibition (%)
NCI-H460 = test: NCI-60 SRB screen; type: cell-based, human; settings: Homo sapiens; single dose 10^−5 M; NCI-H460, Non-small cell lung carcinoma; read-out: Growth inhibition (%)
NCI-H522 = test: NCI-60 SRB screen; type: cell-based, human; settings: Homo sapiens; single dose 10^−5 M; NCI-H522, Non-small cell lung carcinoma; read-out: Growth inhibition (%)
COLO 205 = test: NCI-60 SRB screen; type: cell-based, human; settings: Homo sapiens; single dose 10^−5 M; COLO 205, Colon cancer; read-out: Growth inhibition (%)
HCC-2998 = test: NCI-60 SRB screen; type: cell-based, human; settings: Homo sapiens; single dose 10^−5 M; HCC-2998, Colon cancer; read-out: Growth inhibition (%)
HCT-116 = test: NCI-60 SRB screen; type: cell-based, human; settings: Homo sapiens; single dose 10^−5 M; HCT-116, Colon cancer; read-out: Growth inhibition (%)
HCT-15 = test: NCI-60 SRB screen; type: cell-based, human; settings: Homo sapiens; single dose 10^−5 M; HCT-15, Colon cancer; read-out: Growth inhibition (%)
HT-29 = test: NCI-60 SRB screen; type: cell-based; settings: Homo sapiens; single dose 10^−5 M; HT-29, Colon cancer; read-out: Growth inhibition (%)
KM12 = test: NCI-60 SRB screen; type: cell-based, human; settings: Homo sapiens; single dose 10^−5 M; KM12, Colon cancer; read-out: Growth inhibition (%)
SW-620 = test: NCI-60 SRB screen; type: cell-based; settings: Homo sapiens; single dose 10^−5 M; SW-620, Colon cancer; read-out: Growth inhibition (%)
SF-268 = test: NCI-60 SRB screen; type: cell-based, human; settings: Homo sapiens; single dose 10^−5 M; SF-268, CNS cancer; read-out: Growth inhibition (%)
SF-295 = test: NCI-60 SRB screen; type: cell-based, human; settings: Homo sapiens; single dose 10^−5 M; SF-295, CNS cancer; read-out: Growth inhibition (%)
LOX IMVI = test: NCI-60 SRB screen; type: cell-based, human; settings: Homo sapiens, single dose 10^−5 M, Melanoma, read-out: Growth inhibition (%)
MALME-3M = test: NCI-60 SRB screen; type: cell-based, human; settings: Homo sapiens, single dose 10^−5 M, Melanoma, read-out: Growth inhibition (%)
M14 = test: NCI-60 SRB screen; type: cell-based, human; settings: Homo sapiens; single dose 10^−5 M; M14, Melanoma; read-out: Growth inhibition (%)
MDA-MB-435 = test: NCI-60 SRB screen; type: cell-based; settings: Homo sapiens, MDA-MB-435, read-out: Growth inhibition (%)
SK-MEL-2 = test: NCI-60 SRB screen; type: cell-based, human; settings: Homo sapiens; single dose 10^−5 M; SK-MEL-2, Melanoma; read-out: Growth inhibition (%)
SK-MEL-28 = test: NCI-60 SRB screen; type: cell-based; settings: Homo sapiens; single dose 10^−5 M; SK-MEL-28, Melanoma; read-out: Growth inhibition (%)
SK-MEL-5 = test: NCI-60 SRB screen; type: cell-based, human; settings: Homo sapiens; single dose 10^−5 M; SK-MEL-5, Melanoma; read-out: Growth inhibition (%)
UACC-257 = test: NCI-60 SRB screen; type: cell-based, human; settings: Homo sapiens; single dose 10^−5 M; UACC-257, Melanoma; read-out: Growth inhibition (%)
UACC-62 = test: NCI-60 SRB screen; type: cell-based, human; settings: Homo sapiens; single dose 10^−5 M; UACC-62, Melanoma; read-out: Growth inhibition (%)
IGROV1 = test: NCI-60 SRB screen; type: cell-based, human; settings: Homo sapiens, IGROV-1; single dose 10^−5 M; IGROV1, Ovarian cancer; read-out: Growth inhibition (%)
OVCAR-3 = test: NCI-60 SRB screen; type: cell-based, human; settings: Homo sapiens; single dose 10^−5 M; OVCAR-3, Ovarian cancer; read-out: Growth inhibition (%)
OVCAR-4 = test: NCI-60 SRB screen; type: cell-based, human; settings: Homo sapiens; single dose 10^−5 M; OVCAR-4, Ovarian cancer; read-out: Growth inhibition (%)
NCI/ADR-RES = test: NCI-60 SRB screen; type: cell-based, human; settings: Homo sapiens, single dose 10^−5 M, Ovarian cancer, read-out: Growth inhibition (%)
SK-OV-3 = test: NCI-60 SRB screen; type: cell-based, human; settings: Homo sapiens; single dose 10^−5 M; SK-OV-3, Ovarian cancer; read-out: Growth inhibition (%)
786-0 = test: NCI-60 SRB screen; type: cell-based; settings: Homo sapiens; single dose 10^−5 M; 786-0, Renal cancer; read-out: Growth inhibition (%)
ACHN = test: NCI-60 SRB screen; type: cell-based; settings: Homo sapiens, single dose 10^−5 M, Renal cancer, read-out: Growth inhibition (%)
CAKI-1 = test: NCI-60 SRB screen; type: cell-based, human; settings: Homo sapiens; single dose 10^−5 M; CAKI-1, Renal cancer; read-out: Growth inhibition (%)
RXF 393 = test: NCI-60 SRB screen; type: cell-based, human; settings: Homo sapiens; single dose 10^−5 M; RXF 393, Renal cancer; read-out: Growth inhibition (%)
SN12C = test: NCI-60 SRB screen; type: cell-based, human; settings: Homo sapiens, SN12C; single dose 10^−5 M; SN 12 C, Renal cancer; read-out: Growth inhibition (%)
TK-10 = test: NCI-60 SRB screen; type: cell-based, human; settings: Homo sapiens; single dose 10^−5 M; TK-10, Renal cancer; read-out: Growth inhibition (%)
UO-31 = test: NCI-60 SRB screen; type: cell-based, human; settings: Homo sapiens; single dose 10^−5 M; UO-31, Renal cancer; read-out: Growth inhibition (%)
[1] = test system: panel of 60 cancer cell lines; test: NCI-60 SRB screen, mean or range over the panel; type: cell-based, human; settings: Homo sapiens; mean over the cell lines; single dose 10^−5 M; read-out: Mean growth inhibition (%)

O=[N+]([O-])c1cccc(C2NC(N3CCOCC3)=C(Cl)c3c2sc2c(F)cccc32)c1 (stereo not drawn) [Compound 8b, 4-Chloro-3-(4-morpholino)-8-fluoro-1-(3-nitrophenyl)-1,2-dihydro [1]benzothieno[2,3-c]pyridine]
inhibition at 10 µM (CCRF-CEM): 5% | inhibition at 10 µM (HL-60(TB)): -10.1% | inhibition at 10 µM (K-562): 18.6% | inhibition at 10 µM (MOLT-4): 13.6% | inhibition at 10 µM (SR): 20.4% | inhibition at 10 µM (A549/ATCC): -0.74% | inhibition at 10 µM (EKVX): 14.3% | inhibition at 10 µM (HOP-62): 16.1% | inhibition at 10 µM (HOP-92): 22.2% | inhibition at 10 µM (NCI-H226): 20.9% | inhibition at 10 µM (NCI-H23): 5.35% | inhibition at 10 µM (NCI-H322M): 0.04% | inhibition at 10 µM (NCI-H460): 6.4% | inhibition at 10 µM (NCI-H522): 17.3% | inhibition at 10 µM (COLO 205): -12.9% | inhibition at 10 µM (HCC-2998): -13.5% | inhibition at 10 µM (HCT-116): 25.3% | inhibition at 10 µM (HCT-15): 4.11% | inhibition at 10 µM (HT-29): 0.78% | inhibition at 10 µM (KM12): 6.99% | inhibition at 10 µM (SW-620): 7.44% | inhibition at 10 µM (SF-268): 7.66% | inhibition at 10 µM (SF-295): 4.37% | inhibition at 10 µM (LOX IMVI): 8.33% | inhibition at 10 µM (MALME-3M): -3.09% | inhibition at 10 µM (M14): 7.49% | inhibition at 10 µM (MDA-MB-435): -2.51% | inhibition at 10 µM (SK-MEL-2): 8.89% | inhibition at 10 µM (SK-MEL-28): -7.54% | inhibition at 10 µM (SK-MEL-5): -8.74% | inhibition at 10 µM (UACC-257): -3.74% | inhibition at 10 µM (UACC-62): 17.5% | inhibition at 10 µM (IGROV1): 16.2% | inhibition at 10 µM (OVCAR-3): 2.72% | inhibition at 10 µM (OVCAR-4): 13.5% | inhibition at 10 µM (NCI/ADR-RES): 1.45% | inhibition at 10 µM (SK-OV-3): -1.6% | inhibition at 10 µM (786-0): -6.62% | inhibition at 10 µM (ACHN): 9.98% | inhibition at 10 µM (CAKI-1): 32.5% | inhibition at 10 µM (RXF 393): 11.9% | inhibition at 10 µM (SN12C): 3.71% | inhibition at 10 µM (TK-10): -39.7% | inhibition at 10 µM (UO-31): 38.6% | inhibition at 10 µM [1]: 6.1%

O=[N+]([O-])c1cccc(C2NC(N3CCCCC3)=C(Cl)c3c2sc2c(F)cccc32)c1 (stereo not drawn) [Compound 8c, 4-Chloro-3-(piperidin-1-yl)-8-fluoro-1-(3-nitrophenyl)-1,2-dihydro [1]benzothieno[2,3-c]pyridine]
inhibition at 10 µM (CCRF-CEM): 30.3% | inhibition at 10 µM (HL-60(TB)): 18.7% | inhibition at 10 µM (K-562): 14.1% | inhibition at 10 µM (MOLT-4): 35.6% | inhibition at 10 µM (SR): 10.1% | inhibition at 10 µM (A549/ATCC): 5.05% | inhibition at 10 µM (EKVX): 19.1% | inhibition at 10 µM (HOP-62): 5.22% | inhibition at 10 µM (HOP-92): 9.27% | inhibition at 10 µM (NCI-H226): 28.2% | inhibition at 10 µM (NCI-H23): 3.42% | inhibition at 10 µM (NCI-H322M): -0.59% | inhibition at 10 µM (NCI-H460): 3% | inhibition at 10 µM (NCI-H522): 17.7% | inhibition at 10 µM (COLO 205): -12.7% | inhibition at 10 µM (HCC-2998): -6.85% | inhibition at 10 µM (HCT-116): 1.95% | inhibition at 10 µM (HCT-15): 3.84% | inhibition at 10 µM (HT-29): -2.62% | inhibition at 10 µM (KM12): 3.41% | inhibition at 10 µM (SW-620): 1.71% | inhibition at 10 µM (SF-268): 6.19% | inhibition at 10 µM (SF-295): -6.6% | inhibition at 10 µM (LOX IMVI): -0.7% | inhibition at 10 µM (MALME-3M): 4.61% | inhibition at 10 µM (M14): 1.39% | inhibition at 10 µM (MDA-MB-435): 2% | inhibition at 10 µM (SK-MEL-2): 2.66% | inhibition at 10 µM (SK-MEL-28): -16.7% | inhibition at 10 µM (SK-MEL-5): 0.27% | inhibition at 10 µM (UACC-257): -10.3% | inhibition at 10 µM (UACC-62): 8.57% | inhibition at 10 µM (IGROV1): 17.4% | inhibition at 10 µM (OVCAR-3): -1.68% | inhibition at 10 µM (OVCAR-4): 12.3% | inhibition at 10 µM (NCI/ADR-RES): -2.62% | inhibition at 10 µM (SK-OV-3): 9.9% | inhibition at 10 µM (786-0): -0.24% | inhibition at 10 µM (ACHN): 6.2% | inhibition at 10 µM (CAKI-1): 18.8% | inhibition at 10 µM (RXF 393): -15.6% | inhibition at 10 µM (SN12C): 3.66% | inhibition at 10 µM (TK-10): -22.4% | inhibition at 10 µM (UO-31): 38% | inhibition at 10 µM [1]: 7.22%
